Measured values: patent US12104143B2, “Compositions comprising cellulase with a nonionic surfactant and a quaternary ammonium compound” (ECOLAB USA INC., priority 2018, dated 2024)

Experiments:
[1] = test system: dark eyed fruit flies (DEFF); assay: Adult fly emergence test, dark eyed fruit flies (DEFF); assay type: in vivo; conditions: 1.8% sodium citrate, pH about 4.5; 1% active Bardac 205M, 0.5% Cellulase B or 2% Tween 20 (Test Comp. C, B, A)
Method: Tests were performed to assess the cleaning compositions' effectiveness against insects. Small flies, which are common near clogged drains for beverage towers were used for these tests. Carolina Biological Formula 2-24 Instant Drosophila Medium was mixed with water in equal parts liquid to media by volume. A small pinch of active yeast was also added. The media was allowed to sit for two days before the start of the test, allowing the yeast time to ferment and ensure there will be enough food available for fly larvae when introduced in the media. Ten larvae of each fly species are placed into the fruit fly vials containing media two days after starting the media. The age of the larvae varies, but the majority of the larvae in each vial were mid instars larvae. Mature larvae were avoided to prevent pupation before the product is added. Each treatment had 5 replicates, for a total of 50 larvae of each species per treatment. Larvae were collected from the media of existing fly rearing containers. Emergence of adult flies was recorded at one week, two weeks, and three weeks to determine how many of the […] larvae had completed development and emerged as adults. The test was maintained at 80° F. and ambient humidity. Tween 20 was tested as an exemplary nonionic surfactant. DRAIN EASE FLOW from Novozymes was tested as an exemplary enzyme composition. […]

[2] = test system: cellulase activity; assay: Shelf life stability by enzyme activity assay, incubated at 37° C. over 8 weeks (Examples 8-10); assay type: physicochemical; conditions: for remaining cellulase activity: 4 weeks at 37° C.
Method: The impact of pH on shelf life stability was examined. […] The compositions were adjusted to a pH of 4.00, 4.25, and 4.50. Enzyme stability was assessed by an activity assay.
The compositions were adjusted to a pH of 4.25. Two control compositions were also prepared, one without a surfactant and one with the anionic surfactant, […] (SLS), as a negative control. Enzyme stability was assessed by an activity assay. […] The control containing no surfactant approached 0% remaining activity after the 8-week period.
Different stabilizers—glycerol and PEG 200—were tested to assess their effect on shelf life stability of formulations including a quaternary amine. […] The compositions were adjusted to a pH of 4.25. Enzyme stability was assessed by an activity enzyme. A control composition was also prepared having no stabilizer.

[3] = test system: DRAIN EASE FLOW activity; assay: Enzyme stability: retained DRAIN EASE FLOW activity in degrading a sugar snake after incubation at 37° C. (Example 6); assay type: physicochemical; conditions: 20% stabilizer, 1.0% active Bardac 205M, pH about 4.5
Method: Enzyme stability was tested in cleaning compositions prepared with differing stabilizers. […] The effect of pH on stability was also assessed by testing compositions at a pH of 4.5 and 5.5. […] Enzyme stability was again assessed by an activity assay. […] This increased stability is even more pronounced when formulated with 1% active Bardac […].

[4] = Cellulase catalyzed hydrolysis of bacterial cellulose (sugar snake degradation) with stabilizers (Example 7); assay type: biochemical; conditions: 10% stabilizer; 0.5 wt. % DRAIN EASE FLOW, 2 wt. % Tween 20, 0.1 wt. % Bardac 205M, pH about 4.0; 20 mL/g, 2 hours
Method: The stabilizers tested were PEG 200, Glycerol, Propylene Glycol, and Sucrose. A composition was also prepared without a stabilizer. All the compositions were prepared in water at a pH of about 4.0. A piece of sugar snake weighing about 5 grams was used to screen enzyme performance. The chemistry was dosed at 20 mL/g sugar snake and incubated for 2 hours. The relative enzyme performance was determined at each concentration by comparing the performance to control formulations lacking stabilizer. The results are provided in FIG. 11 where 40 indicates 40% degradation.

In the case of `CCCCCCCCCCCC(=O)OCCOCCOCCOCCOCCOCCOCCOCCOCCOCCOCCOCCOCCOCCOCCOCCOCCOCCOCCOCCOCC(OCCOCCOCCOCCOCCOCCOCCOCCOCCOCCOCCOCCOCCOCCOCCOCCOCCOCCOCCOCCO)C1OCC(OCCOCCOCCOCCOCCOCCOCCOCCOCCOCCOCCOCCOCCOCCOCCOCCOCCOCCOCCOCCO)C1OCCOCCOCCOCCOCCOCCOCCOCCOCCOCCOCCOCCOCCOCCOCCOCCOCCOCCOCCOCCO` (stereo not drawn) [Tween 20, polyethylene glycol sorbitan monolaurate], the “adult DEFF emergence relative to the water and buffer only controls” value [1] is reported as “not statistically significant”, the “residual activity after 8 weeks” value ([2]; 2 wt. % surfactant (or none), 0.2 wt. % Bardac 205M, 10 wt. % PEG 200, 0.5 wt. % DRAIN EASE FLOW, pH 4.25, 37° C.) is reported as 55% and the “shelf stability ranking among surfactants” value ([2]; 2 wt. % surfactant, 0.2 wt. % Bardac 205M, 10 wt. % PEG 200, pH 4.25, 37° C., 8 weeks) is reported as “best stability”.

In the case of `OCC(O)CO` [glycerol], the remaining cellulase activity ([2]; 10% stabilizer, both quaternary amine concentrations (175 ppm and 1000 ppm), pH 4.25) is reported as > 95%, the “shelf life stability ranking among stabilizers” value ([2]; 10 wt. % stabilizer or none, 175 ppm or 1000 ppm Bardac 205M, pH 4.25, 37° C.) is reported as “best stability” and the “enzyme stability relative to control formulations lacking stabilizer” value [3] is reported as “enhanced stability”.

In the case of `CC(O)CO` (stereo not drawn) [propylene glycol], the “enzyme stability relative to control formulations lacking stabilizer” value [3] is reported as “did not enhance stability”.

In the case of `OC[C@H]1O[C@@](CO)(O[C@H]2O[C@H](CO)[C@@H](O)[C@H](O)[C@H]2O)[C@@H](O)[C@@H]1O` [sucrose], the “sugar snake degradation performance versus control formulations lacking stabilizer” value [4] is reported as “did not statistically impact performance”.

For polyethylene glycol 200 [PEG 200], the remaining cellulase activity ([2]; 10% stabilizer, 175 ppm quaternary amine, pH 4.25) was > 40%, the shelf life stability ([2]; 10% stabilizer, 1000 ppm quaternary, pH 4.25, 37° C.) was “enhanced stability” and the “enzyme stability relative to control formulations lacking stabilizer” value [3] was “enhanced stability”.

In the case of polyethylene glycol 400 [PEG 400], the “enzyme stability relative to control formulations lacking stabilizer” value [3] is reported as “did not enhance stability”.
